Legend:
[1] = biological target: T1, HIV-1 protease (Human immunodeficiency virus type 1 group M subtype B, UniProt P04585); experiment: in vitro inhibition of HIV-1 protease (octapeptide substrate cleavage, HPLC); assay type: biochemical; details: substrate H-Val-Ser-Gln-Asn-Tyr-Pro-Ile-Val-OH
T1 construct: HIV-1 protease is available for purchase from Medigenics; purchased Medigenics, 701 Mercy Rd., Suite 420, Omaha, Nebraska 68106
Procedure: HIV-1 protease is available for purchase from Medigenics, 701 Mercy Rd., Suite 420, Omaha, Nebraska 68106. Protease activity is assayed using the octapeptide H-Val-Ser-Gln-Asn-Tyr-Pro-Ile-Val-OH as the substrate. Cleavage of the substrate is quantitated by measuring the production of H-Val-Ser-Gln-Asn-Tyr-OH by HPLC analysis by the method described by Tomaselli et al., (cited previously).

[2] = system: HTLV-IIIB strain of HIV-1; experiment: anti-HIV-1 activity in H9 based tissue culture, supernatant p24 antigen; assay type: cell-based; details: for inhibition at 0.2 µg/mL / inhibition at 2 µg/mL / inhibition at 20 µg/mL: Human immunodeficiency virus 1, IIIB, read-out: % Inhibition p24; for % Inhibition p24: H9 culture, relative to infected control cultures
Procedure: Compounds are also tested for their ability to act as anti-HIV-1 compounds in tissue culture. The tests are performed in H9 based tissue culture challenged with HTLV-IIIB strain of HIV-1. The assay consists of evaluating the percent inhibition of supernatent p24 antigen concentrations relative to infected control cultures, as well as percent viable cells at 20 µg/ml in uninfected cells.

[3] = system: HIV-1 strain IIIB; experiment: inhibition of growth of HIV-1 in MT-2 cells, CPE (cell death) measured with MTT dye; assay type: cell-based; details: T lymphoid MT-2 cell lines, after 5 days; for inhibition at 2.5 µg/mL / inhibition at 0.625 µg/mL: Human immunodeficiency virus 1, IIIB, MT2, 120 h, read-out: % Inhibition at Concentration
Source text: In Table 3 data is shown for the ability of these compounds to inhibit growth of HIV-1 strain IIIB in T lymphoid MT-2 cell lines. The endpoint of these experiments after 5 days is CPE (cell death) measured with the metabolic MTT dye.

## CC(C)CNC(=O)[C@H](Cc1ccccc1)CC(O)C[C@@H](Cc1ccccc1)C(=O)NCC(C)C (relative stereo) [Example 331, [R,(R*,R*)-N,N'-4-hydroxy-N,N'-bis(2-methylpropyl)-2,6-bis(phenylmethyl)heptanediamide]
[1]
  IC50: 0.5 µM

## CC(C)(C)NC(=O)C1CCCCN1CC(O)(CO)CN1CCCCC1C(=O)NC(C)(C)C (single isomer, unassigned) [58 (Isomer A)]
[1]
  IC50: > 1000 µM

## CC(C)(C)NC(=O)C1CCCCN1CC(O)(CO)CN1CCCCC1C(=O)NC(C)(C)C (single isomer, unassigned) [58 (Isomer B)]
[1]
  IC50: 100 µM

## CC(C)(C)NC(=O)C(Cc1ccccc1)CC(O)CC(Cc1ccccc1)C(=O)NC(C)(C)C (stereo not drawn) [Example 36]
[1]
  IC50: 0.1 µM

## O=C(NC1CCCC1)C(Cc1ccccc1)CC(O)CC(Cc1ccccc1)C(=O)NC1CCCC1 (stereo not drawn) [Example 39]
[1]
  IC50: 0.01 µM

## O=C(NCC1CCCCC1)C(Cc1ccccc1)CC(O)CC(Cc1ccccc1)C(=O)NCC1CCCCC1 (stereo not drawn) [Example 42]
[1]
  IC50: 50 µM

## CC(C)(C)OC(=O)NC1CCCCC1NC(=O)C(Cc1ccccc1)CC(O)CC(Cc1ccccc1)C(=O)NC1CCCCC1NC(=O)OC(C)(C)C (stereo not drawn) [Example 46]
[1]
  IC50: 0.8 µM

## CC(C)(C)NC(=O)CN(Cc1ccccc1)CC(O)(CO)CN(CC(=O)NC(C)(C)C)Cc1ccccc1 [Example 52]
[2]
  inhibition at 0.2 µg/mL: 0%
  inhibition at 2 µg/mL: 0%
  inhibition at 20 µg/mL: 90%
[1]
  IC50: 5 µM

## CC(C)(C)NC(=O)CN(Cc1ccccc1)CC(O)CN(CC(=O)NC(C)(C)C)Cc1ccccc1 [Example 53]
[1]
  IC50: 100 µM

## CCOC(=O)CN(Cc1ccccc1)CC(O)(CO)CN(CC(=O)NC(C)(C)C)Cc1ccccc1 (stereo not drawn) [Example 54]
[1]
  IC50: 100 µM

## CCOC(=O)CN(Cc1ccccc1)CC(O)(CO)CN(CC(=O)OCC)Cc1ccccc1 [Example 55]
[2]
  inhibition at 0.2 µg/mL: 0%
  inhibition at 2 µg/mL: 0%
  inhibition at 20 µg/mL: 0%
[1]
  IC50: 100 µM

## CCOC(=O)CN(CC1CCCCC1)CC(O)(CO)CN(CC(=O)OCC)CC1CCCCC1 [Example 60]
[1]
  IC50: 50 µM

## COC(=O)[C@H](Cc1ccccc1)NC(=O)[C@@H](NC(=O)[C@H](Cc1ccccc1)CC(O)C[C@@H](Cc1ccccc1)C(=O)N[C@H](C(=O)N[C@@H](Cc1ccccc1)C(=O)OC)C(C)C)C(C)C [Example 110, [R-(R*,R*)]-N^ω,N^ω'-(2,6-Bis(phenylmethyl)-4-hydroxy-1,7-dioxo-1,7-heptanediyl)bis[N-L-valyl-L-phenylalanine] dimethyl ester]
[3]; 2.5 µg/ml
  inhibition at 2.5 µg/mL: 58.7%
[3]; .625 µg/ml
  inhibition at 0.625 µg/mL: 16.6%
[1]
  IC50: 0.01 µM

## O=C(NC1CCCCC1Nc1ccncc1)C(Cc1ccccc1)CC(O)CC(Cc1ccccc1)C(=O)NC1CCCCC1Nc1ccncc1 (stereo not drawn) [Example 323, [1S-[1α[2R*,6R*,7(1R*,2R*)],2β]]-4-Hydroxy-2,6-bis(phenylmethyl)-N,N'-bis[[(4-pyridyl)amino]cyclohexyl]-heptanediamde]
[3]; 2.5 µg/ml
  % Inhibition at Concentration: 3.1%
[3]; .625 µg/ml
  % Inhibition at Concentration: 0.2%
[1]
  IC50: 0.1 µM

## O=C(NC1CCCCC1Nc1cccnc1)C(Cc1ccccc1)CC(O)CC(Cc1ccccc1)C(=O)NC1CCCCC1Nc1cccnc1 (stereo not drawn) [Example 324, [1S-[1α[2R*,6R*,7(1R*,2R*)],2β]]-4-Hydroxy-2,6-bis(phenylmethyl)-N,N'-bis[[(3-pyridyl)amino]cyclohexyl]-heptanediamde]
[1]
  IC50: 0.1 µM

## O=C(NC1CCCCC1Nc1ccccn1)C(Cc1ccccc1)CC(O)CC(Cc1ccccc1)C(=O)NC1CCCCC1Nc1ccccn1 (stereo not drawn) [Example 325, [1S-[1α[2R*,6R*,7(1R*,2R*)],2β]]-4-Hydroxy-2,6-bis(phenylmethyl)-N,N'-bis[[(2-pyridyl)amino]cyclohexyl]-heptanediamde]
[3]; 2.5 µg/ml
  % Inhibition at Concentration: 3.8%
[3]; .625 µg/ml
  % Inhibition at Concentration: 0.0%
[1]
  IC50: 0.1 µM

## CC(=O)NC1CCCCC1NC(=O)C(Cc1ccccc1)CC(O)CC(Cc1ccccc1)C(=O)NC1CCCCC1NC(C)=O (stereo not drawn) [Example 326, [1S-[1α[2R*,6R*,7(1R*,2R*)],2β]]-4-Hydroxy-2,6-bis(phenylmethyl)-N,N'-bis[[(2-acetyl)amino]cyclohexyl]-heptanediamde]
[2]; 2 µg/ml
  % Inhibition p24: 0%
[2]; 20 µg/ml
  % Inhibition p24: 3%
[2]; .2 µg/ml
  % Inhibition p24: 0%
[1]
  IC50: 0.1 µM

## O=C(Cc1ccccn1)NC1CCCCC1NC(=O)C(Cc1ccccc1)CC(O)CC(Cc1ccccc1)C(=O)NC1CCCCC1NC(=O)Cc1ccccn1 (stereo not drawn) [Example 327, [1S-[1α[2R*,6R*,7(1R*,2R*)],2β]]-4-Hydroxy-2,6-bis(phenylmethyl)-N,N'-bis[[((2-pyridyl)acetyl)amino]cyclohexyl]-heptanediamde]
[3]; 2.5 µg/ml
  % Inhibition at Concentration: 3.2%
[3]; .625 µg/ml
  % Inhibition at Concentration: 3.2%
[1]
  IC50: 0.1 µM

## CC(C)C(NC(=O)C(Cc1ccccc1)CC(O)CC(Cc1ccccc1)C(=O)NC(C(=O)NCc1nc2ccccc2[nH]1)C(C)C)C(=O)NCc1nc2ccccc2[nH]1 (stereo not drawn) [Example 328, [1S-[1R*[2S*,6S*,7R*],2R*]]-4-Hydroxy-2,6-bis(phenylmethyl)-N,N'-bis[1-[[(1-H-benzimidazoyl-2ylmethyl)amino]carbonyl]-2-methylpropyl]-heptanediamide]
[3]; 2.5 µg/ml
  inhibition at 2.5 µg/mL: 72.8%
[3]; .625 µg/ml
  inhibition at 0.625 µg/mL: 17.1%
[1]
  IC50: 0.005 µM

## CCC(C)C(NC(=O)C(Cc1ccccc1)CC(O)CC(Cc1ccccc1)C(=O)NC(C(=O)NCc1nc2ccccc2[nH]1)C(C)CC)C(=O)NCc1nc2ccccc2[nH]1 (stereo not drawn) [Example 329, [1S-[1R*[2S*,6S*,7(1R*,2R*)],2R*]]-4-Hydroxy-2,6-bis(phenylmethyl)-N,N'-bis[1-[[(1-H-benzimidazoyl-2ylmethyl)amino]carbonyl]-2-methylbutyl]heptanediamide]
[3]; 2.5 µg/ml
  inhibition at 2.5 µg/mL: 97.9%
[3]; .625 µg/ml
  inhibition at 0.625 µg/mL: 92.5%
[1]
  IC50: 0.005 µM

## O=C(NC1CCCCC1)[C@H](Cc1ccccc1)CC(O)C[C@@H](Cc1ccccc1)C(=O)NC1CCCCC1 [Example 330, [R-(R*,R*)]-N,N'dicyclohexyl-4-hydroxy-2,6-bis(phenylmethyl) heptanediamide]
[2]
  inhibition at 0.2 µg/mL: 0%
  inhibition at 2 µg/mL: 0%
  inhibition at 20 µg/mL: 0%
[1]
  IC50: 0.1 µM
